Measurements from patent publication US9120749B2, “Quinoline derivatives and MELK inhibitors containing the same” (ONCOTHERAPY SCIENCE, INC., priority 2010, dated 2015).
Blank lines part the entries; values can stand above or below the compound they belong to.

What was measured:
DU4475 cells = test: Cell-based assay: anti-proliferative activity, Cell Counting Kit-8, 72 hours (DU4475); settings: Homo sapiens, DU-4475, 72 h
T47D cells = test: Cell-based assay: anti-proliferative activity, Cell Counting Kit-8, 72 hours (T47D); settings: Homo sapiens, T47D, 72 h
In short: (§1)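 IC50 values come from CCK-8 growth measurements taken 72 hours post-treatment of plated cells with test compounds. Expression of MELK across the panel was assessed through immunoblot of unfractionated lysates.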

A549 cells = test: Cell-based assay: anti-proliferative activity, Cell Counting Kit-8, 72 hours (A549); settings: Homo sapiens, A549, 72 h, 72 hours
In short: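 Cell Counting Kit-8 read-out of A549 growth after 72 hours of inhibitor exposure, cells plated in 96-well format. Values reported as IC50.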

HT-1197 cells = test: Cell-based assay: anti-proliferative activity, Cell Counting Kit-8, 72 hours (HT-1197, negative control without MELK expression); settings: Homo sapiens, HT1197, 72 h, HT1197 cells (negative control), 72 hours
In short: as §1

MELK = MELK (Homo sapiens, UniProt Q14680); test: Kinase assay: MELK activity, phosphorylation of FITC-labeled histone H3 peptide measured by IMAP fluorescence polarization; format: biochemical; settings: read-out: IC50 (μM) (kinase assay)
Sequence of MELK (Q14680 whole entry, looked up): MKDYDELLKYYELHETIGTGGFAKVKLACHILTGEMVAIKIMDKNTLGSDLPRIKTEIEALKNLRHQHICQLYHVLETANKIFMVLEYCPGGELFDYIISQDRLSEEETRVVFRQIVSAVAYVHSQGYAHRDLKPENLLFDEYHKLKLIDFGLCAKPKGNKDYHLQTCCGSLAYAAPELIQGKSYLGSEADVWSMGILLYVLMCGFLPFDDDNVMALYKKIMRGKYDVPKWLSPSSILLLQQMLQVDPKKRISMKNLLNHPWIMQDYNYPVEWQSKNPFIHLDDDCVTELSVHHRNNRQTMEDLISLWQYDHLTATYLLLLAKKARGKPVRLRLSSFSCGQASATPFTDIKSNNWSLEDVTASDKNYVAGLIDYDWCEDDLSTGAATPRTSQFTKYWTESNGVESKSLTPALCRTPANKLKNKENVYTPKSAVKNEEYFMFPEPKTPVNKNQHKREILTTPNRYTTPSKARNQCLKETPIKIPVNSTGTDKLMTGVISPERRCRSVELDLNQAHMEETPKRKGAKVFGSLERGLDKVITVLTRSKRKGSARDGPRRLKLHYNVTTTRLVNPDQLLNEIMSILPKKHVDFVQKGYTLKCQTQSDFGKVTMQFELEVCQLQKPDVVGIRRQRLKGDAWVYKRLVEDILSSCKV
In short: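 Substrate is FITC-labeled histone H3 peptide. Compounds come from a 12.5 mM DMSO stock, diluted so assay DMSO is 1%. The stop step adds threefold-volume progressive binding solution, followed by 0.5 h at room temperature and an FP read.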

IC50 (T47D cells): 0.23 µM
IC50 (A549 cells): 0.21 µM
SMILES: CN1CCN(C[C@H]2CC[C@H](Nc3c(C(=O)C4CC4)cnc4ccc(-c5cc(Cl)c(O)c(Cl)c5)cc34)CC2)CC1 [Example 618]
IC50 (DU4475 cells): 0.12 µM
IC50 (HT-1197 cells): 2.3 µM

SMILES: CN[C@H]1CC[C@H](Nc2c(C(C)=O)cnc3ccc(-c4cc(Cl)c(O)c(Cl)c4)cc23)CC1 [Example 558]
IC50 (MELK): 0.0025 µM
IC50 (DU4475 cells): 0.043 µM
IC50 (T47D cells): 0.094 µM
IC50 (A549 cells): 0.32 µM
IC50 (HT-1197 cells): 10 µM

SMILES: O=C(c1cnc2ccc(-c3cc(F)c(O)c(Cl)c3)cc2c1Nc1ccc(NC2CCCNC2)nc1)C1CC1 (centres unmarked) [Example 611, (6-(3-chloro-5-fluoro-4-hydroxyphenyl)-4-(6-(piperidin-3-ylamino)pyridin-3-ylamino)quinolin-3-yl)(cyclopropyl)methanone]
IC50 (MELK): 0.0023 µM
IC50 (DU4475 cells): 0.39 µM
IC50 (T47D cells): 0.13 µM
IC50 (A549 cells): 0.57 µM
IC50 (HT-1197 cells): 10 µM

SMILES: CCCC(=O)c1cnc2ccc(-c3cc(Cl)c(O)c(OC)c3)cc2c1N[C@H]1CC[C@H](CN(C)C)CC1 [Example 607]
IC50 (MELK): 0.0051 µM
IC50 (DU4475 cells): 0.24 µM
IC50 (T47D cells): 0.24 µM
IC50 (A549 cells): 0.48 µM
IC50 (HT-1197 cells): 3.4 µM

SMILES: COc1cc(-c2ccc3ncc(C(=O)C4CC4)c(Nc4ccc(N5CCC(N)C5)nc4)c3c2)cc(Cl)c1O (centres unmarked) [Example 568, (4-(6-(3-aminopyrrolidin-1-yl)pyridin-3-ylamino)-6-(3-chloro-4-hydroxy-5-methoxyphenyl)quinolin-3-yl)(cyclopropyl)methanone]
IC50 (MELK): 0.0027 µM
IC50 (DU4475 cells): 0.045 µM
IC50 (T47D cells): 0.057 µM
IC50 (A549 cells): 0.082 µM
IC50 (HT-1197 cells): 0.62 µM

SMILES: CN(C)C[C@H]1CC[C@@H](Nc2c(C(=O)C3CC3)cnc3ccc(-c4cc(Cl)c(O)c(Cl)c4)cc23)CC1 [Example 526, cyclopropyl(6-(3,5-dichloro-4-hydroxyphenyl)-4-((1s,4s)-4-((dimethylamino)methyl)cyclohexylamino)quinolin-3-yl)methanone]
IC50 (MELK): 0.0021 µM
IC50 (DU4475 cells): 0.15 µM
IC50 (T47D cells): 0.29 µM
IC50 (A549 cells): 0.25 µM
IC50 (HT-1197 cells): 1.2 µM

SMILES: CCCC(=O)c1cnc2ccc(-c3cc(Cl)c(O)c(Cl)c3)cc2c1N[C@H]1CC[C@H](N)CC1 [Example 535, 1-(4-((trans-4-aminocyclohexyl)amino)-6-(3,5-dichloro-4-hydroxyphenyl)quinolin-3-yl)butan-1-one]
IC50 (MELK): 0.0024 µM
IC50 (DU4475 cells): 0.025 µM
IC50 (T47D cells): 0.077 µM
IC50 (A549 cells): 0.24 µM
IC50 (HT-1197 cells): 3.3 µM

SMILES: COc1cc(-c2ccc3ncc(C(=O)C4CC4)c(C4=CCNCC4)c3c2)cc(Cl)c1O [Example 516, (6-(3-chloro-4-hydroxy-5-methoxyphenyl)-4-(1,2,3,6-tetrahydropyridin-4-yl)quinolin-3-yl)(cyclopropyl)methanone]
IC50 (MELK): 0.0044 µM
IC50 (DU4475 cells): 0.66 µM
IC50 (T47D cells): 0.52 µM
IC50 (A549 cells): 0.36 µM
IC50 (HT-1197 cells): 3 µM

SMILES: NC1CCCN(c2ccc(Nc3c(C(=O)C4CC4)cnc4ccc(-c5cc(F)c(O)c(Cl)c5)cc34)cn2)C1 (centres unmarked) [Example 561, (4-(6-(3-aminopiperidin-1-yl)pyridin-3-ylamino)-6-(3-chloro-5-fluoro-4-hydroxyphenyl)quinolin-3-yl)(cyclopropyl)methanone]
IC50 (MELK): 0.0027 µM
IC50 (DU4475 cells): 0.0066 µM
IC50 (T47D cells): 0.0055 µM
IC50 (A549 cells): 0.008 µM
IC50 (HT-1197 cells): 0.3 µM

SMILES: NC1CCN(c2ccc(Nc3c(C(=O)C4CC4)cnc4ccc(-c5cc(F)c(O)c(Cl)c5)cc34)cn2)C1 (centres unmarked) [Example 576, (4-(6-(3-aminopyrrolidin-1-yl)pyridin-3-ylamino)-6-(3-chloro-5-fluoro-4-hydroxyphenyl)quinolin-3-yl)(cyclopropyl)methanone]
IC50 (MELK): 0.0019 µM
IC50 (DU4475 cells): 0.012 µM
IC50 (T47D cells): 0.0094 µM
IC50 (A549 cells): 0.026 µM
IC50 (HT-1197 cells): 0.53 µM

SMILES: CC(=O)c1cnc2ccc(-c3cc(F)c(O)c(Cl)c3)cc2c1N[C@H]1CC[C@H](N)CC1 [Example 527, 1-(4-((trans-4-aminocyclohexyl)amino)-6-(3-chloro-5-fluoro-4-hydroxyphenyl)quinolin-3-yl)ethanone]
IC50 (MELK): 0.015 µM
IC50 (DU4475 cells): 0.02 µM
IC50 (T47D cells): 0.034 µM
IC50 (A549 cells): 0.42 µM
IC50 (HT-1197 cells): 10 µM

SMILES: NC1CCN(c2ncc(Nc3c(C(=O)C4CC4)cnc4ccc(-c5cc(F)c(O)c(Cl)c5)cc34)cn2)C1 (centres unmarked) [Example 572, (4-(2-(3-aminopyrrolidin-1-yl)pyrimidin-5-ylamino)-6-(3-chloro-5-fluoro-4-hydroxyphenyl)quinolin-3-yl)(cyclopropyl)methanone]
IC50 (MELK): 0.003 µM
IC50 (DU4475 cells): 0.011 µM
IC50 (T47D cells): 0.0076 µM
IC50 (A549 cells): 0.03 µM
IC50 (HT-1197 cells): 0.37 µM
